The values that follow come from ChEMBL document CHEMBL1154025, “Design and synthesis of BACE-1 inhibitors utilizing a tertiary hydroxyl motif as the transition state mimic” (Bioorg Med Chem Lett, 2009).

In series [1] the target is Beta-secretase 1 (Homo sapiens, UniProt P56817). Kind of series: Inhibition of human BACE1 expressed in Escherichia coli BL21(DE3) using Swedish mutant sequence Eu-EVNLDAEFK-Quencher substrate by homogeneous time resolved fluorescence assay.
Series [2] concerns the target Cathepsin D (Homo sapiens, UniProt P07339). Kind of series: Inhibition of human liver cathepsin D.
A short description of series [3]: Permeability across human Caco-2 cell membrane. Type of series: ADME, cell-based. (In general: Caco-2 monolayers are a common model of the intestinal barrier.)

The structures appear in SMILES notation.

Sequence of Beta-secretase 1 (P56817 whole entry): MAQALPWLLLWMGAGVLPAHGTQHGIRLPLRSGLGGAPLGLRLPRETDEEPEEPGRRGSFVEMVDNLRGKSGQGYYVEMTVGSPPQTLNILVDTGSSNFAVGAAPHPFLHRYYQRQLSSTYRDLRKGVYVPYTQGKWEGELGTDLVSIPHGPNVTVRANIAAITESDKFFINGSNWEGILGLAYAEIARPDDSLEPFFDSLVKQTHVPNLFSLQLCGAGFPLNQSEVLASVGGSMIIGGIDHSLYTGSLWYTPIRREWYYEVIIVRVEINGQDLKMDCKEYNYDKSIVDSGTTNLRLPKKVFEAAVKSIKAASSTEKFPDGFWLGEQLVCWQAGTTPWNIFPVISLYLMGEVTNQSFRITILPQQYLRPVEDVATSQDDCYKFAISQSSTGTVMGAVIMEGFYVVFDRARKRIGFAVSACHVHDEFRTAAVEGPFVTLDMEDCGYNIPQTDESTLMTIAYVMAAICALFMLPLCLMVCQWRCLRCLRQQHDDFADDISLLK
Sequence of Cathepsin D (P07339 65-162 limits assumed): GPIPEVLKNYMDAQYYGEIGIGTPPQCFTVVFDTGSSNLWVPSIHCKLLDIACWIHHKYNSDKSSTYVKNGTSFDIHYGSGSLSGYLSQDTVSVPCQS
Sequence of Cathepsin D (P07339 169-412 limits assumed): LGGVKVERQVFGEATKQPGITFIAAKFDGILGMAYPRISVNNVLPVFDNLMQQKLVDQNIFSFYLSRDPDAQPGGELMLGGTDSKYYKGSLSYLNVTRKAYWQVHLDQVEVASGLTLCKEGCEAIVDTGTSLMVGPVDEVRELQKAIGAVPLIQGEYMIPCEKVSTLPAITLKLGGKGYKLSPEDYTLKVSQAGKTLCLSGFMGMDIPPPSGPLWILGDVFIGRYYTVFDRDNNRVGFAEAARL

The IC50 is the midpoint of a concentration-inhibition curve. Take `CC(C)[C@H](NC(=O)CCC(O)(CCc1ccccc1)C(=O)Nc1cc(C(=O)N[C@H](C)c2ccc(F)cc2)cc(N(C)S(C)(=O)=O)c1)C(=O)NCc1ccccc1` (some centres undefined): in series [1], the concentration for half-maximal inhibition (IC50) was > 10 µM.

On to `C[C@@H](NC(=O)c1cc(NC(=O)CC[C@](O)(Cc2ccccc2)C(=O)N[C@H]2c3ccccc3C[C@H]2O)cc(N(C)S(C)(=O)=O)c1)c1ccccc1`, for which inhibition in series [1] was half-maximal at 2.5 µM (IC50).

Consider `CC(C)[C@H](NC(=O)CCC(O)(Cc1ccccc1)C(=O)Nc1cc(C(=O)N[C@H](C)c2ccc(F)cc2)cc(N(C)S(C)(=O)=O)c1)C(=O)NCc1ccc(C(=O)O)cc1` (some centres undefined), for which the half-inhibitory concentration (IC50) in series [1] is > 10 µM.

In series [1], `C[C@@H](NC(=O)c1cc(NC(=O)CC[C@@](O)(Cc2ccccc2)C(=O)N[C@H]2c3ccccc3C[C@H]2O)cc(N(C)S(C)(=O)=O)c1)c1ccccc1` gave an IC50 of 4.6 µM.

In the case of `CC(C)[C@H](NC(=O)C(O)(CCC(=O)Nc1cc(C(=O)N[C@H](C)c2ccccc2)cc(N(C)S(C)(=O)=O)c1)CCc1ccccc1)C(=O)NCc1ccccc1` (some centres undefined), the IC50 in series [1] was determined as 0.45 µM.

As to `CC(C)[C@H](NC(=O)CCC(O)(Cc1ccccc1)C(=O)Nc1cc(C(=O)N[C@H](C)c2ccc(F)cc2)cc(N(C)S(C)(=O)=O)c1)C(=O)Nc1ccc(C(=O)O)cc1` (some centres undefined), in series [1], the IC50 was > 10 µM.

In the case of `CC(C)[C@H](NC(=O)CCC(O)(Cc1ccccc1)C(=O)Nc1cc(C(=O)N[C@H](C)c2ccc(F)cc2)cc(N(C)S(C)(=O)=O)c1)C(=O)NCc1ccccc1` (some centres undefined), the midpoint of inhibition in series [1], the IC50, lay at 5.9 µM.

In the case of `COC(=O)c1ccc(NC(=O)[C@@H](NC(=O)CCC(O)(Cc2ccccc2)C(=O)Nc2cc(C(=O)N[C@H](C)c3ccc(F)cc3)cc(N(C)S(C)(=O)=O)c2)C(C)C)cc1` (some centres undefined), the 50% inhibitory concentration (IC50) in series [1] stood at 4 µM.

As to `COC(=O)c1ccc(CNC(=O)[C@@H](NC(=O)CCC(O)(Cc2ccccc2)C(=O)Nc2cc(C(=O)N[C@H](C)c3ccc(F)cc3)cc(N(C)S(C)(=O)=O)c2)C(C)C)cc1` (some centres undefined), the IC50 in series [1] is > 10 µM.

In turn, `CC(C)[C@H](NC(=O)CCC(O)(CCc1ccccc1)C(=O)Nc1cc(C(=O)N[C@H](C)c2ccccc2)cc(N(C)S(C)(=O)=O)c1)C(=O)NCc1ccccc1` (some centres undefined) registered an IC50 in series [1] of 5.6 µM.

On to `C[C@@H](NC(=O)c1cc(NC(=O)C(O)(CCC(=O)N[C@H]2c3ccccc3C[C@H]2O)Cc2ccccc2)cc(N(C)S(C)(=O)=O)c1)c1ccc(F)cc1` (some centres undefined), for which the IC50 in series [1] is > 10 µM.

On to `CC(C)[C@H](NC(=O)C(O)(CCC(=O)Nc1cc(C(=O)N[C@H](C)c2ccccc2)cc(N(C)S(C)(=O)=O)c1)CCc1ccccc1)C(=O)Nc1ccccc1` (single isomer, unassigned), for which half-maximal inhibition in series [1] (IC50) was put at 0.32 µM.

In turn, `C[C@@H](NC(=O)c1cc(NC(=O)CCC(O)(CCc2ccccc2)C(=O)N[C@H]2c3ccccc3C[C@H]2O)cc(N(C)S(C)(=O)=O)c1)c1ccccc1` (stereo in doubt; 36-(A)) displayed an IC50 in series [1] of 0.57 µM.

By Ki is commonly meant a measure of affinity in units of concentration, obtained from inhibition or displacement. Lower therefore signals tighter binding. For orientation: Papp means a coefficient for how fast a substance crosses the barrier. Take `C[C@@H](NC(=O)c1cc(NC(=O)CCC(O)(CCc2ccccc2)C(=O)N[C@H]2c3ccccc3C[C@H]2O)cc(N(C)S(C)(=O)=O)c1)c1ccccc1` (stereo in doubt; 37-(B)): the inhibition constant Ki in series [2] is > 5 µM. In addition, the IC50 in series [1] worked out at 0.25 µM. Also, the Papp in series [3] was < 1 ×10⁻⁶ cm/s.

For `CC(C)[C@H](NC(=O)C(O)(CCC(=O)Nc1cc(C(=O)N[C@H](C)c2ccccc2)cc(N(C)S(C)(=O)=O)c1)CCc1ccccc1)C(=O)Nc1ccccc1` (stereo in doubt; 39-(A)), the Ki in series [2] is > 5 µM. In series [1], this molecule yielded a 50% inhibitory concentration (IC50) of 0.23 µM. This molecule returned an apparent permeability (Papp) in series [3] of 1.2 ×10⁻⁶ cm/s.
